Consider 1 molecule from patent US6875760B2 (Novo Nordisk A/S, priority 1999, dated 2005).

Usually melting point stands for the temperature, or range, at which the solid turns liquid. As usually defined, the IC50 is the concentration at which inhibition is half-maximal. The low end stands for greater potency, the high end for weaker potency.

Molecules are shown by their SMILES.

In one data set the target is T1, human glucagon receptor (Homo sapiens, UniProt P47871).
T1 construct: expressed in transfected cells; host or cells: BHK (baby hamster kidney) cells
T1 sequence (P47871 26-477): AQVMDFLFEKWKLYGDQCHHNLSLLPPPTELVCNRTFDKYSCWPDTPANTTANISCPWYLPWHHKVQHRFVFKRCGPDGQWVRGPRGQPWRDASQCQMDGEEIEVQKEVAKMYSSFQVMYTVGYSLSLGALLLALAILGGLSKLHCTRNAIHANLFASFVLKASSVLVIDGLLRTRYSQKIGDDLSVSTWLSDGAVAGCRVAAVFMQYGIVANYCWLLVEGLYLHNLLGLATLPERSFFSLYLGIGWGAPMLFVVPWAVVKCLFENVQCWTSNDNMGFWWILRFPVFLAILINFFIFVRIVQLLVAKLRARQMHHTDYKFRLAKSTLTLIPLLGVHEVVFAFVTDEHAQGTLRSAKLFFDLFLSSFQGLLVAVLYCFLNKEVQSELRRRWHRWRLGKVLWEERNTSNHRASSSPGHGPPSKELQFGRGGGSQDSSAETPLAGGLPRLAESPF
The data set is described as follows: Glucagon Binding Assay (III). The conditions noted are these: Glu Bd Assay (III) IC50 (nM), BHK cell membranes, WGA SPA beads, 125I-glucagon. The procedure, abridged:
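Membranes from BHK cells transfected with the human receptor, prepared at 4 °C, were used in a WGA-bead scintillation proximity binding format. Plates were shaken for 4 hours, left to settle 8–48 hours and then counted. Non-specific binding was defined with 500 nM glucagon.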

For the molecule `CC(C)(C)[C@H]1CC[C@H](N(Cc2ccc(C(=O)NCCC(=O)O)cc2)C(=O)Nc2ccc(OC(F)(F)F)cc2)CC1` [Example 92, 3-{4-[1-(4-trans-tert-Butylcyclohexyl)-3-(4-trifluoromethoxyphenyl)ureidomethyl]benzoylamino}propionic acid], the melting point lay in the range of 152 to 154 °C. At human glucagon receptor, this molecule displayed an IC50 of 47 nM.
